Test results published in ChEMBL document CHEMBL4507288 (2021).
Each block holds one compound with its values, some of them ahead of it.

How the values were obtained:
[1] = target: Histamine H2 receptor (Homo sapiens, UniProt P25021); conditions: Compound concentration 10.0 uM
[2] = target: Serine/threonine-protein kinase 33 (Homo sapiens) (UniProt Q9BYT3); conditions: Compound concentration 1000.0 nM
[3] = target: RAC-gamma serine/threonine-protein kinase (Homo sapiens) (UniProt Q9Y243); conditions: Compound concentration 1000.0 nM
[4] = target: Ribosomal protein S6 kinase alpha-6 (Homo sapiens) (UniProt Q9UK32); conditions: Compound concentration 1000.0 nM
[5] = target: Mitogen-activated protein kinase kinase kinase 15 (Homo sapiens) (UniProt Q6ZN16); conditions: Compound concentration 1000.0 nM
[6] = target: Mitogen-activated protein kinase kinase kinase 7 (Homo sapiens) (UniProt O43318); conditions: Compound concentration 1000.0 nM
[7] = target: Atypical kinase COQ8A, mitochondrial (Homo sapiens) (UniProt Q8NI60); conditions: Compound concentration 1000.0 nM
[8] = target: Inhibitor of nuclear factor kappa-B kinase subunit beta (Homo sapiens) (UniProt O14920); conditions: Compound concentration 1000.0 nM
[9] = target: STE20-like serine/threonine-protein kinase (Homo sapiens) (UniProt Q9H2G2); conditions: Compound concentration 1000.0 nM
[10] = target: Protein-tyrosine kinase 6 (Homo sapiens) (UniProt Q13882); conditions: Compound concentration 1000.0 nM
[11] = target: Activin receptor type-1B (Homo sapiens) (UniProt P36896); conditions: Compound concentration 1000.0 nM
[12] = target: Serine/threonine-protein kinase RIO2 (Homo sapiens) (UniProt Q9BVS4); conditions: Compound concentration 1000.0 nM
[13] = target: Platelet-derived growth factor receptor alpha (Homo sapiens) (UniProt P16234); conditions: Compound concentration 1000.0 nM
[14] = target: Ribosomal protein S6 kinase alpha-1 (Homo sapiens) (UniProt Q15418); conditions: Compound concentration 1000.0 nM
[15] = target: Casein kinase I isoform delta (Homo sapiens) (UniProt P48730); conditions: Compound concentration 1000.0 nM
[16] = target: Dual specificity protein kinase CLK1 (Homo sapiens) (UniProt P49759); conditions: Compound concentration 1000.0 nM
[17] = target: Casein kinase I isoform gamma-3 (Homo sapiens) (UniProt Q9Y6M4); conditions: Compound concentration 1000.0 nM
[18] = target: Cyclin-dependent kinase 19 (Homo sapiens) (UniProt Q9BWU1); conditions: Compound concentration 1000.0 nM
[19] = target: Leukocyte tyrosine kinase receptor (Homo sapiens) (UniProt P29376); conditions: Compound concentration 1000.0 nM
[20] = test system: Hepatocyte growth factor receptor (Homo sapiens), P08581 [Y1235D]; conditions: Compound concentration 1000.0 nM
[21] = target: Serine/threonine-protein kinase N1 (Homo sapiens) (UniProt Q16512); conditions: Compound concentration 1000.0 nM
[22] = target: Serine/threonine-protein kinase NIM1 (Homo sapiens) (UniProt Q8IY84); conditions: Compound concentration 1000.0 nM
[23] = target: RAC-beta serine/threonine-protein kinase (Homo sapiens) (UniProt P31751); conditions: Compound concentration 1000.0 nM
[24] = target: Phosphatidylinositol 4,5-bisphosphate 3-kinase catalytic subunit alpha isoform (Homo sapiens) (UniProt P42336); conditions: Compound concentration 1000.0 nM
[25] = target: Cyclin-dependent kinase 14 (Homo sapiens) (UniProt O94921); conditions: Compound concentration 1000.0 nM
[26] = target: Eukaryotic translation initiation factor 2-alpha kinase 1 (Homo sapiens) (UniProt Q9BQI3); conditions: Compound concentration 1000.0 nM
[27] = target: Serine/threonine-protein kinase PLK2 (Homo sapiens) (UniProt Q9NYY3); conditions: Compound concentration 1000.0 nM
[28] = target: Phosphatidylinositol 4,5-bisphosphate 3-kinase catalytic subunit delta isoform (Homo sapiens) (UniProt O00329); conditions: Compound concentration 1000.0 nM
[29] = target: Serine/threonine-protein kinase TAO3 (Homo sapiens) (UniProt Q9H2K8); conditions: Compound concentration 1000.0 nM
[30] = target: Serine/threonine-protein kinase SIK1 (Homo sapiens) (UniProt P57059); conditions: Compound concentration 1000.0 nM
[31] = test system: Epidermal growth factor receptor (Homo sapiens), P00533 [L858R,T790M]; conditions: Compound concentration 1000.0 nM
[32] = target: Fibroblast growth factor receptor 2 (Homo sapiens) (UniProt P21802); conditions: Compound concentration 1000.0 nM
[33] = target: Mitogen-activated protein kinase 3 (Homo sapiens) (UniProt P27361); conditions: Compound concentration 1000.0 nM
[34] = target: Serine/threonine-protein kinase 32B (Homo sapiens) (UniProt Q9NY57); conditions: Compound concentration 1000.0 nM
[35] = target: Ephrin type-A receptor 7 (Homo sapiens) (UniProt Q15375); conditions: Compound concentration 1000.0 nM
[36] = target: Inhibitor of nuclear factor kappa-B kinase subunit alpha (Homo sapiens) (UniProt O15111); conditions: Compound concentration 1000.0 nM
[37] = target: Serine/threonine-protein kinase Nek2 (Homo sapiens) (UniProt P51955); conditions: Compound concentration 1000.0 nM
[38] = target: Ephrin type-A receptor 8 (Homo sapiens) (UniProt P29322); conditions: Compound concentration 1000.0 nM
[39] = target: Serine/threonine-protein kinase mTOR (Homo sapiens) (UniProt P42345); conditions: Compound concentration 1000.0 nM
[40] = target: Ribosomal protein S6 kinase alpha-5 (Homo sapiens) (UniProt O75582); conditions: Compound concentration 1000.0 nM
[41] = test system: Proto-oncogene tyrosine-protein kinase receptor Ret (Homo sapiens), P07949 [V804M]; conditions: Compound concentration 1000.0 nM
[42] = target: Serine/threonine-protein kinase/endoribonuclease IRE1 (Homo sapiens) (UniProt O75460); conditions: Compound concentration 1000.0 nM
[43] = target: Dual specificity mitogen-activated protein kinase kinase 2 (Homo sapiens) (UniProt P36507); conditions: Compound concentration 1000.0 nM
[44] = target: Ephrin type-B receptor 6 (Homo sapiens) (UniProt O15197); conditions: Compound concentration 1000.0 nM
[45] = target: Cyclin-dependent kinase 2 (Homo sapiens) (UniProt P24941); conditions: Compound concentration 1000.0 nM

Chain of Serine/threonine-protein kinase N1 (Homo sapiens) (Q16512 2-942 limits assumed): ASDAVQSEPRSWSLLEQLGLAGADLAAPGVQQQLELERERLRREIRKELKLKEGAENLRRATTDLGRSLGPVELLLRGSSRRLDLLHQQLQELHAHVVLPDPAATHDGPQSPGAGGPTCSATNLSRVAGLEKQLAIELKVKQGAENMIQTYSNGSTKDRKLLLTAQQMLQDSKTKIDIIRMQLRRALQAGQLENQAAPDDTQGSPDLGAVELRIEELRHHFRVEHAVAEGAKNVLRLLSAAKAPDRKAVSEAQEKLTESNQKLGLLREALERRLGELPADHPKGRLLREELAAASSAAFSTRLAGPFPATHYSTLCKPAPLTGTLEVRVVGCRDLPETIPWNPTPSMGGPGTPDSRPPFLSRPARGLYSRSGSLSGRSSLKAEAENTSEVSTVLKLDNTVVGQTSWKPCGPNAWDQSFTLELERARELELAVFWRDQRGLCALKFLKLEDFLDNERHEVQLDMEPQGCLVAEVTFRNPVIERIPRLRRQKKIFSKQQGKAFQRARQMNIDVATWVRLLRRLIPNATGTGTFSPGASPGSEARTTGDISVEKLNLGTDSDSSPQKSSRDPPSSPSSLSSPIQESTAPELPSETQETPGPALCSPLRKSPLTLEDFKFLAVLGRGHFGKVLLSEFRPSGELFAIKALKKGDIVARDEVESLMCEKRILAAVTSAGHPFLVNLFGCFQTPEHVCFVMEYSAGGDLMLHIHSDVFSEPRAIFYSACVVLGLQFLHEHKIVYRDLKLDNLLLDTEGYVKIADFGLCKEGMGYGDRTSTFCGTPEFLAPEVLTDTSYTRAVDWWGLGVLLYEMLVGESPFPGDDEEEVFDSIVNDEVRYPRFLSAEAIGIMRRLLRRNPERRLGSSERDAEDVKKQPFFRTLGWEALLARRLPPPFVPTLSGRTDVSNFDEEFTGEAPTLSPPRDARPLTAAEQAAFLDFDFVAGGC
Chain of Eukaryotic translation initiation factor 2-alpha kinase 1 (Homo sapiens) (Q9BQI3 whole entry): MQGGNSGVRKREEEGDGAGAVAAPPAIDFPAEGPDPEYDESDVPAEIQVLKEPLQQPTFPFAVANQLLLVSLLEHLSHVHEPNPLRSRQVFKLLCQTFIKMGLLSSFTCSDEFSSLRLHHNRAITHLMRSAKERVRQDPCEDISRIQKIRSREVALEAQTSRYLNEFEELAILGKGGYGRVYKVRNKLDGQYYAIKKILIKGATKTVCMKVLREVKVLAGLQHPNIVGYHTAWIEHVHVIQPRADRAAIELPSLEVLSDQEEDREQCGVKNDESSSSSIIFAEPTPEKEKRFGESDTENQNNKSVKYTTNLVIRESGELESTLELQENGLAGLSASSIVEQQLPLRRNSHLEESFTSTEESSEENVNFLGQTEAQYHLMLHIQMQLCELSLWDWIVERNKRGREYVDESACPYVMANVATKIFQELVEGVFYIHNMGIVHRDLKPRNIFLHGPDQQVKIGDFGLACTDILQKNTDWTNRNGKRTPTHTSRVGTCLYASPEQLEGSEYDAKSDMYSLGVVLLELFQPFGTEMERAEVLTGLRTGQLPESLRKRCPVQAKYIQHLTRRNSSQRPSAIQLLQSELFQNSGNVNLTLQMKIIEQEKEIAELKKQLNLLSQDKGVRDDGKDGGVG
Chain of Serine/threonine-protein kinase 32B (Homo sapiens) (Q9NY57 whole entry): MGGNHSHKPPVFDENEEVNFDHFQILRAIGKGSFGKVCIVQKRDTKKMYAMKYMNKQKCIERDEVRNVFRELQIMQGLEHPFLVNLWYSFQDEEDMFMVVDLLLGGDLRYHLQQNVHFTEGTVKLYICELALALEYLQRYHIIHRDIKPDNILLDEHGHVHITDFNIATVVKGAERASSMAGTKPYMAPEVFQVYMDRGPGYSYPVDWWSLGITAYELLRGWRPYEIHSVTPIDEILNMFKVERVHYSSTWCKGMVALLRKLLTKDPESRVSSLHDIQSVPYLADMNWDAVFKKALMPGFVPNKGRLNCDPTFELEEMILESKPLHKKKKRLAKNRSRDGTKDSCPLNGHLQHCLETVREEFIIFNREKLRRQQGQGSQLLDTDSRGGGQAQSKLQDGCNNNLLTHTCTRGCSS
Chain of Casein kinase I isoform gamma-3 (Homo sapiens) (Q9Y6M4 whole entry, looked up, canonical isoform): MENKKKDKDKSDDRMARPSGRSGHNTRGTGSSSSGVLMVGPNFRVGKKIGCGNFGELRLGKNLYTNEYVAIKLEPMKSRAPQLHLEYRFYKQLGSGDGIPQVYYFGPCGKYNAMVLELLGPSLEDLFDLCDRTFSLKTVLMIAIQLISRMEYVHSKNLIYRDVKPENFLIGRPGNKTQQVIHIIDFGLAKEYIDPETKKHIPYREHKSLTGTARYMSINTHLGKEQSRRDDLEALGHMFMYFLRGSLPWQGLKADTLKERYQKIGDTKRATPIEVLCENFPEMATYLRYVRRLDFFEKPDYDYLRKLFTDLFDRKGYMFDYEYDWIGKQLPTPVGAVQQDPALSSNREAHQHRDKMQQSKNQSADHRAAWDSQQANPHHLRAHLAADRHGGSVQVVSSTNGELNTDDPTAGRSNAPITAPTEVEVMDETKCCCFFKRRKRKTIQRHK
Chain of Serine/threonine-protein kinase TAO3 (Homo sapiens) (Q9H2K8 whole entry): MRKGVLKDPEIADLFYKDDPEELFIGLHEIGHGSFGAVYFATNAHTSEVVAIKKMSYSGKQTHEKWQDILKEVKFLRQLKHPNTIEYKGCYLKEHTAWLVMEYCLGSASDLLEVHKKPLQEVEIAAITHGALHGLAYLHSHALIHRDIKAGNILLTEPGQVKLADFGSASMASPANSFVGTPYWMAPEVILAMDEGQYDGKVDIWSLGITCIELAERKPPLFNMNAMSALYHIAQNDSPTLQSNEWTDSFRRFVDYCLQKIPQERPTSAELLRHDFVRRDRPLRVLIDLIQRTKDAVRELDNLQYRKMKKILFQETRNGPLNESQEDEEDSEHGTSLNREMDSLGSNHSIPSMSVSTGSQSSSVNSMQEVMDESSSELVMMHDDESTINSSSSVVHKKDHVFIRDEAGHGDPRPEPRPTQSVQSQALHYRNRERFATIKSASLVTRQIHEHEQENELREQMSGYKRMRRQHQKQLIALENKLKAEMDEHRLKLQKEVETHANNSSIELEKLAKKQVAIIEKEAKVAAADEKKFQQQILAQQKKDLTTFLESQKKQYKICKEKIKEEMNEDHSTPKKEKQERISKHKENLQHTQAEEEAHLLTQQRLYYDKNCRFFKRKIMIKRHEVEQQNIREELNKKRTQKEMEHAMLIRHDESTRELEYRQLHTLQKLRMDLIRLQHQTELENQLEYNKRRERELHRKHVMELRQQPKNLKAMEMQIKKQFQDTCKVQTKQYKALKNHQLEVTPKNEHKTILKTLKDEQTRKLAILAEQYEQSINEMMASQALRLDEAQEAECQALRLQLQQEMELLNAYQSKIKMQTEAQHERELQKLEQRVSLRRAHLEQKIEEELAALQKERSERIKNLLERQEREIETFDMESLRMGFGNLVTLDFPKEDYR
Chain of Platelet-derived growth factor receptor alpha (Homo sapiens) (P16234 whole entry): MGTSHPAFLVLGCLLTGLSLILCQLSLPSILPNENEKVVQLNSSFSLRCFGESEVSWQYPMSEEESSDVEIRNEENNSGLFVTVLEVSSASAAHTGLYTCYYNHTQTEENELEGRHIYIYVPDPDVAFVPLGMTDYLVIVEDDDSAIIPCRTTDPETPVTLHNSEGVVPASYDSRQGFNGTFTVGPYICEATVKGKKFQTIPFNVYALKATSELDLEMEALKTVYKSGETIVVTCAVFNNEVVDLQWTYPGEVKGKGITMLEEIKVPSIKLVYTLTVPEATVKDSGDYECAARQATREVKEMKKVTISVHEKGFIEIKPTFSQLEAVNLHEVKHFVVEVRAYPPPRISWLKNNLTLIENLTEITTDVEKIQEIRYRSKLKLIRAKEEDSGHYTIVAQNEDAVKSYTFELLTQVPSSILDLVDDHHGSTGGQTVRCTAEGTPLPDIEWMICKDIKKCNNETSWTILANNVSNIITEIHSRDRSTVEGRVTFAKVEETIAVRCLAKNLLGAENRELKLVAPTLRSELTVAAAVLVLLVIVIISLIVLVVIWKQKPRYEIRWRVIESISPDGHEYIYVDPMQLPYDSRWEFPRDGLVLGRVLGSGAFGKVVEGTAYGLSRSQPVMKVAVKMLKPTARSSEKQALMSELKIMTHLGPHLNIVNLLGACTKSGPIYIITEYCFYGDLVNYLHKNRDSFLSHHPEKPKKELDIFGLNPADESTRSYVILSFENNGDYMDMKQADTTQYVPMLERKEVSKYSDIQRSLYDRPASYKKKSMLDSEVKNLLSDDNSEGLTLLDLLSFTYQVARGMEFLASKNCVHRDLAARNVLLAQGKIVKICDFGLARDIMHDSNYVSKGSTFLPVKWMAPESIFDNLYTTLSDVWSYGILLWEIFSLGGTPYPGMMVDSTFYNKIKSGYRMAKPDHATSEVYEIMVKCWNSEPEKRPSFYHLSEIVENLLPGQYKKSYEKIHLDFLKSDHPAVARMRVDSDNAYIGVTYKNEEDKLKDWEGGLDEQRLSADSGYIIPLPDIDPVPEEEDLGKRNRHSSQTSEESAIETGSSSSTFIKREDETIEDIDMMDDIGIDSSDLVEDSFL
Chain of Mitogen-activated protein kinase 3 (Homo sapiens) (P27361 whole entry): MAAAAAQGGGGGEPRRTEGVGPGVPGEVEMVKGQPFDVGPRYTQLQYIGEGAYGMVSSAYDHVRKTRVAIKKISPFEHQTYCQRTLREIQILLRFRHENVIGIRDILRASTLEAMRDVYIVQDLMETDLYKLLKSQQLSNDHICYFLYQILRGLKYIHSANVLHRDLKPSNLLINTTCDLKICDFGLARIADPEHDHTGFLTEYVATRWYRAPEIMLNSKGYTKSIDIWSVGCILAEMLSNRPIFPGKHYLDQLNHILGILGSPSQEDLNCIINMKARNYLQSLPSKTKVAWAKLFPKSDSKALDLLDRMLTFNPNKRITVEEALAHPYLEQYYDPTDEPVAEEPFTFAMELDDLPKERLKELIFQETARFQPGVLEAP

inhibition [1]: 53.1%
SMILES: CC(C)(C)OC(=O)N1CCCC1CNC1CCC(c2cc(F)ccc2F)(S(=O)(=O)c2ccc(Cl)cc2)CC1 (stereo not given) [GSI-NC]

SMILES: O=S(=O)(NC1CCC(c2cc(F)ccc2F)(S(=O)(=O)c2ccc(Cl)cc2)CC1)C(F)(F)F (stereo not given) [MRK-560]
residual activity [2]: 76% | residual activity [3]: 100% | residual activity [4]: 90% | residual activity [5]: 78% | residual activity [6]: 100% | residual activity [7]: 99% | residual activity [8]: 93% | residual activity [9]: 100% | residual activity [10]: 95% | residual activity [11]: 87% | residual activity [12]: 82% | residual activity [13]: 100% | residual activity [14]: 90% | residual activity [15]: 87% | residual activity [16]: 78% | residual activity [17]: 83% | residual activity [18]: 100% | residual activity [19]: 100% | residual activity [20]: 97% | residual activity [21]: 100% | residual activity [22]: 80% | residual activity [23]: 99% | residual activity [24]: 100% | residual activity [25]: 100% | residual activity [26]: 100% | residual activity [27]: 100% | residual activity [28]: 100% | residual activity [29]: 100% | residual activity [30]: 100% | residual activity [31]: 89% | residual activity [32]: 84% | residual activity [33]: 100% | residual activity [34]: 100% | residual activity [35]: 100% | residual activity [36]: 100% | residual activity [37]: 98% | residual activity [38]: 100% | residual activity [39]: 94% | residual activity [40]: 94% | residual activity [41]: 100% | residual activity [42]: 100% | residual activity [43]: 100% | residual activity [44]: 100% | residual activity [45]: 100%
